Patent publication US6403630B1, “Treating cancers associated with overexpression of HER-2/neu” (Cornell Research Foundation, Inc., priority 1999, dated 2002)

How the values were obtained:
[1] = system: COX-2 in 184B5/HER cells; assay: Amounts of COX-2 in 184B5/HER cells after treatment with MAP kinase inhibitors; assay type: cell-based, human
Text: The cells used were 184B5 and 184B5/HER cell lines. They were obtained from a collaborator. The 184B5 cell line is an immortalized but nontumorogenic human breast epithelial cell line that was established from a reduction mammoplasty and is described in Stampfer, M. R., et al., Proc. Natl. Acad. Sci. USA 82, 2394-2398 (1985). The 184B5/HER cell line was derived by stably transfecting 184B5 cells with a mutationally activated human HER-2/neu oncogene; these cells form rapidly growing tumors when injected into athymic nude mice. The 184B5/HER cell line is described in Pierce, J. H., et al., Oncogene 6, 1189-1194(1991). Cells were maintained in MEM (from Life Technologies, Inc. of Grand Island, N.Y.)—KBM, i.e., kerotinocyte basal medium (from Clonetics Corp. of San Diego, Calif.), mixed in a ratio of 1:1. […]
Western blotting was carried out to determine whether the differences in PGE2 production were related to differences in amounts of COX enzymes. […] The protein concentration of the supernatant was measured as described in Lowry, O. H., et al., J. Biol. Chem. 193, 265-275 (1951). […]
The activity of p44/42 MAP kinase was measured using a nonradioactive method where the assay was performed with a p44/42 MAP kinase activity kit obtained from New England Biolabs (of Beverly, Mass.) using the manufacturer's instructions. […]

[2] = system: HER-2/neu positive breast cancer that has metastasized; assay: Treatment of a patient with metastasized HER-2/neu positive breast cancer; assay type: in vivo, human
Description: Breast cancer is determined to have metastasized to lung and liver three years after a mastectomy is performed on a patient with HER-2/neu positive breast cancer. The patient is treated with oral doses of Celebrex® of 400 mg twice a day or of Vioxx® of 50 mg per day.
After three months, the Celebrex® or Vioxx® was continued in combination regimen with Taxol® at a dose of 175 mg/m^2 administered intravenously every three weeks.
Breast cancer is determined to have metastasized to bone nine years after a mastectomy is performed on a patient with HER-2/neu positive breast cancer.
After 90 days, oral cyclophosphamide at a dose of 3 mg/kg/day and doxoribicin administered intravenously weekly at a dose of 20 mg/m^2, are added to the drug regimen.

[3] = system: HER-2/neu positive breast cancer; assay: Adjuvant therapy of a patient with HER-2/neu positive breast cancer; assay type: in vivo, human
Description: A patient with HER-2/neu positive breast cancer is treated with Celebrex® for adjuvant therapy at an oral dose of 400 mg twice a day for five years after a mastectomy. […] The same result is obtained when the Celebrex® is replaced with an oral dose of 50 mg per day of Vioxx® for five years.
The patient also received an oral dose of 400 mg Celebrex® twice daily for one year or an oral dose of 50 mg Vioxx® daily for one year.

[4] = system: HER-2/neu positive colon cancer; assay: Treatment of a patient after resection of HER-2/neu positive colon cancer; assay type: in vivo, human; settings: cancer localized to bowel wall, oral Celebrex 400 mg twice a day or Vioxx 50 mg per day for five years
Description: A patient undergoes resection of colon cancer which proves to be HER-2/neu positive. The colon cancer is found to be localized to the bowel wall; there is no evidence of extracolonic cancer. The patient is treated with Celebrex® at oral dose of 400 mg twice a day for five years or an oral dose of Vioxx® at 50 mg per day for five years.

[5] = metastasized to bone, after failure of prior chemotherapy, oral Celebrex 400 mg twice a day or Vioxx 50 mg per day plus HERCEPTIN
[6] = metastasized to bone, after 90 days oral cyclophosphamide 3 mg/kg/day and weekly IV doxorubicin 20 mg/m^2 added to the COX-2 inhibitor plus HERCEPTIN regimen
[7] = metastasized to lung and liver, after three months continued in combination with Taxol 175 mg/m^2 IV every three weeks
[8] = metastasized to lung and liver, oral Celebrex 400 mg twice a day or Vioxx 50 mg per day alone
[9] = adjuvant therapy alone, oral, five years after a mastectomy (Celebrex 400 mg twice a day; Vioxx 50 mg per day)
[10] = adjuvant therapy with HERCEPTIN (250 mg IV loading, 10 weekly 125 mg IV), oral Celebrex 400 mg twice daily or Vioxx 50 mg daily for one year

Row | Compound | amounts of COX-2 [1] | tumor burden [2, 5] | tumor burden [2, 6] | tumor burden [2, 7] | tumor burden [2, 8] | Recurrence of breast cancer [3, 9] | Recurrence of breast cancer [3, 10] | Recurrence of colon cancer [4]
1 | COc1cccc(-c2cc(=O)c3ccccc3o2)c1N [PD 98059, 2′-amino-3′-methoxyflavone] | decrease |  |  |  |  |  |  | 
2 | Oc1ccc(-c2nc(-c3ccc(F)cc3)c(-c3ccncc3)[nH]2)cc1 [SB 202190, 4-(4-fluorophenyl)-2-(4-hydroxyphenyl)-5-(4-pyridyl)-1H-imidazole] | down-regulated |  |  |  |  |  |  | 
3 | Cc1ccc(-c2cc(C(F)(F)F)nn2-c2ccc(S(N)(=O)=O)cc2)cc1 [Celebrex®, 4-[5-(4-Methylphenyl)-3-(trifluoromethyl)-1H-pyrazol-1-yl]benzenesulfonamide] |  | reduced tumor burden | still further reduced tumor burden | further reduced tumor burden | reduced tumor burden | does not occur | does not occur | does not occur
4 | CS(=O)(=O)c1ccc(C2=C(c3ccccc3)C(=O)OC2)cc1 [Vioxx®, 3-(Phenyl)-4-(4-(methylsulfonyl)phenyl)-2-(5H)-furanone] |  | reduced tumor burden | still further reduced tumor burden | further reduced tumor burden | reduced tumor burden | does not occur | does not occur | does not occur
